Reference: patent US20150246058A1, “COMPOSITION FOR PREVENTING HAIR LOSS AND ACCELERATING HAIR GROWTH” (RNS CO., LTD., priority 2012, published 2015)

Experiments:
5α-reductase = 5α-reductase inhibitory efficacy: DHT produced in testosterone-stimulated dermal papilla cells (DHT ELISA); type: cell-based; conditions: 50 nM testosterone, 24 hours, produced DHT relative to control
Procedure: After seeding 1 ml of dermal papilla cells (DPCs) by 5×10^5/ml into each well of a 24-well plate, then incubating the same for 24 hours, each of the reaction products prepared according to procedures described in Examples 1 to 72 was added in amounts of 50 μg/ml, 10 μg/ml and 0 μg/ml, respectively, to individual wells. After 1 hour, the wells were subjected to stimulation using 50 nM testosterone (DMSO dissolved). The supernatant was discarded 24 hours after culturing, to thus obtain DPc pellets. A content of dihydrotestosterone (DHT) (DB52021, Hamburg, Germany) was determined by means of enzyme-linked immune-sorbent assay. DPCs cell pellets were seeded in an amount of 100 μL into each of Dihydrotestosterone (DHT) ELISA microtiter strips coated with rabbit anti-DHT antibody, 25 μL of DHT antiserum was seeded in every well, and subjected to a reaction at 2 to 8° C. for 15 to 20 hours, followed by washing the same three times. Thereafter, 100 μL of DHT-HRP enzyme conjugate was seeded in every well and reacted on a shaker at room temperature for 30 minutes, followed by washing the same three times. Furthermore, 100 μL of substrate was seeded in every well and reacted on a shaker at room temperature for 20 to 30 minutes. Then, the product was treated using 100 μL stop solution, and subjected to measurement of absorbance at 450 nm to express an amount of produced DHT by the absorbance (three times repeated). An amount of produced DHT relative to a control was calculated in terms of an inhibitory rate (%), and results thereof are shown in Table 3 below.

mice (C57BL/6, female) = test: Assessment of anagen phase induction and promotion in shaved mice; type: in vivo
Procedure: Experimentation for effects of inducing and promoting an anagen phase (that is, hair growth period) was performed with 7 weeks-old mice (C57BL/6, female) widely used in assessment of activity for anagen phase induction. First, using an electric shaver, hair on the dorsal part of a mouse was removed. Each mouse was weighed and all mice were divided into groups, each group having five (5) mice, in order to uniformly disperse body weights of the mice. Hair cut regions were coated with an excipient, control and test medicine, respectively. In this regard, the excipient was 95% ethanol, the control was 2% minoxidil, and the test medicine used herein was the compound in Example 8 diluted with 95% ethanol to have a final concentration of 0.5%. Using a brush, each of the above test samples was sufficiently applied to the dorsal part of each mouse once per day.

[1] = 20 days after experimentation, topical once per day on shaved dorsal part, five mice per group, Minoxidil 2%, Example 8 0.5% in 95% ethanol

Molecule | 5α-reductase inhibitory rate (%) (5α-reductase; sample concentration 10 μg/ml) | 5α-reductase inhibitory rate (%) (5α-reductase; sample concentration 50 μg/ml) | hair growth in the hair cut region (in words) (mice (C57BL/6, female); 0.5% in 95% ethanol, topical once per day, Table 4 and FIG. 1) | Number of mouse graded + (improved) (mice (C57BL/6, female); [1]) | Number of mouse graded ++ (remarkably improved) (mice (C57BL/6, female); [1]) | Number of mouse graded ± (slightly improved) (mice (C57BL/6, female); [1]) | Number of mouse graded − (not changed) (mice (C57BL/6, female); [1])
β-amyrin stearate [Compound in Example 8] | 48 | 63 | rapid hair growth | 1 | 3 | 1 | 
Nc1cc(N2CCCCC2)nc(N)[n+]1[O-] [Minoxidil, minoxidil, reference compound] |  |  |  | 1 | 2 | 1 | 1
CC(=O)O[C@H]1CC[C@]2(C)[C@H]3CC=C4[C@@H]5[C@@H](C)[C@H](C)CC[C@]5(C)CC[C@@]4(C)[C@]3(C)CC[C@H]2C1(C)C [Compound in Example 11, α-amyrin acetate] | 31 | 42 |  |  |  |  | 
CCCCCCCCO[C@H]1CC[C@@]2(C)C(=CC[C@H]3[C@@H]4CC[C@H]([C@H](C)CCCC(C)C)[C@@]4(C)CC[C@@H]32)C1 [Compound in Example 68, O-octyl-cholesterol] | 35 | 45 |  |  |  |  | 
